From patent US7595401B2, “Therapeutic compounds and their use in cancer” (Myriad Pharmaceuticals, Inc., priority 2006, dated 2009) come the findings set out here.

Molecules are shown by their SMILES.

The test system of the first test is Luciferase refolding. Briefly: Luciferase refolding assay. The class given is biochemical. Further details: key: *Compound is active in Luciferase refolding assay. The conditions noted are these: compound fluorescent in FP binding assay.
Turning to `CC(C)(C)OC(=O)N1CCOC(CCn2cnc(N)c3nc(Sc4cc5c(cc4Br)OCO5)nc2-3)C1` (centres unmarked) [Example 368, tert-Butyl 2-(2-{6-amino-8-[(6-bromo-1,3-benzodioxol-5-yl)thio]-3H-purin-3-yl}ethyl)morpholine-4-carboxylate], the “active in Luciferase refolding assay (asterisk footnote)” value is on record as “*Fluorescent”.

In the case of `Nc1ncn(CCC2(F)C(F)(F)C(F)(F)C(F)(F)C(F)(F)C2(F)F)c2nc(Sc3cc4c(cc3Br)OCO4)nc1-2` [Example 377, 8-[(6-Bromo-1,3-benzodioxol-5-yl)thio]-3-[2-(undecafluorocyclohexyl)ethyl]-3H-purin-6-amine], the “active in Luciferase refolding assay (asterisk footnote)” value is “*Fluorescent”.

The subject of a further test is purified human Hsp90. Briefly: Binding Assay: fluorescence polarization with BODIPY-labeled geldanamycin. The conditions noted are these: 5 μM compound, BODIPY-GM 10 nM, Hsp90 30 nM. A digest of the protocol: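 Compounds in 2% DMSO final compete with 10 nM BODIPY-GM for 30 nM purified human Hsp90, incubated overnight at room temperature in pH 7.3 HEPES buffer containing Na2MoO4 and DTT. Polarization (mP, ex/em 485/530) normalized to DMSO gives percent inhibition; autofluorescence-confounded data excluded.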
As to `C[C@H](NC(=O)OC(C)(C)C)C(=O)N1CCCC(Cn2cnc(N)c3nc(Sc4cc5c(cc4Br)OCO5)nc2-3)C1` (stereo partly drawn) [Example 779, tert-butyl {(1S)-2-[3-({6-amino-8-[(6-bromo-1,3-benzodioxol-5-yl)thio]-3H-purin-3-yl}methyl)piperidin-1-yl]-1-methyl-2-oxoethyl}carbamate], the “% Inhibition at 5 μM Compound Concentration” value stood at 43.00%.

The test is the same for the next values; noted with them: BODIPY-GM 10 nM, Hsp90 30 nM.
Compound `CC(C)(C)OC(=O)N1CCCC[C@H]1C(=O)N1CCC(CCn2c(Sc3cc4c(cc3Br)OCO4)nc3c(N)ncnc32)CC1` [Example 732, tert-Butyl(2S)-2-{[4-(2-{6-amino-8-[(6-bromo-1,3-benzodioxol-5-yl)thio]-9H-purin-9-yl}ethyl)piperidin-1-yl]carbonyl}piperidine-1-carboxylate] had an IC50 of more than 5000 nM. Regarding `C[C@@H](NC(=O)OC(C)(C)C)C(=O)N1CCC[C@@H](CCn2c(Sc3cc4c(cc3Br)OCO4)nc3c(N)ncnc32)C1` [Example 734, tert-Butyl{(1R)-2-[(3S)-3-(2-{6-amino-8-[(6-bromo-1,3-benzodioxol-5-yl)thio]-9H-purin-9-yl}ethyl)piperidin-1-yl]-1-methyl-2-oxoethyl}carbamate], the IC50 is more than 2000 nM. `C[C@H](N)C(=O)N1CCC(CCn2c(Sc3cc4c(cc3Br)OCO4)nc3c(N)ncnc32)CC1` [Example 742, 9-(2-{1-[(2S)-2-Aminopropanoyl]piperidin-4-yl}ethyl)-8-[(6-bromo-1,3-benzodioxol-5-yl)thio]-9H-purin-6-amine] displayed a concentration for half-maximal inhibition (IC50) of 140 nM. `C[C@@H](N)C(=O)N1CCCC(CCn2c(Sc3cc4c(cc3Br)OCO4)nc3c(N)ncnc32)C1` (stereo partly drawn) [Example 743, 9-(2-{1-[(2R)-2-Aminopropanoyl]piperidin-3-yl}ethyl)-8-[(6-bromo-1,3-benzodioxol-5-yl)thio]-9H-purin-6-amine] yielded an IC50 of 40 nM. In turn, `CC(C)C[C@H](N)C(=O)N1CCC(CCn2c(Sc3cc4c(cc3Br)OCO4)nc3c(N)ncnc32)CC1` [Example 744, 9-(2-{1-[(2S)-2-Amino-4-methylpentanoyl]piperidin-4-yl}ethyl)-8-[(6-bromo-1,3-benzodioxol-5-yl)thio]-9H-purin-6-amine] displayed an IC50 of 68 nM. `CC(C)[C@H](N)C(=O)N1CCCC(CCn2c(Sc3cc4c(cc3Br)OCO4)nc3c(N)ncnc32)C1` (stereo partly drawn) [Example 745, 9-(2-{1-[(2S)-2-Amino-3-methylbutanoyl]piperidin-3-yl}ethyl)-8-[(6-bromo-1,3-benzodioxol-5-yl)thio]-9H-purin-6-amine] showed an IC50 of 123 nM. Turning to `C[C@@H](N)C(=O)N1CCC(CCn2c(Sc3cc4c(cc3Br)OCO4)nc3c(N)ncnc32)CC1` [Example 746, 9-(2-{1-[(2R)-2-Aminopropanoyl]piperidin-4-yl}ethyl)-8-[(6-bromo-1,3-benzodioxol-5-yl)thio]-9H-purin-6-amine], the concentration for half-maximal inhibition (IC50) was found to be 240 nM. `C[C@H](N)C(=O)N1CCCC(CCn2c(Sc3cc4c(cc3Br)OCO4)nc3c(N)ncnc32)C1` (stereo partly drawn) [Example 747, 9-(2-{1-[(2S)-2-Aminopropanoyl]piperidin-3-yl}ethyl)-8-[(6-bromo-1,3-benzodioxol-5-yl)thio]-9H-purin-6-amine] had an IC50 of 110 nM. For `CC(C)C[C@H](N)C(=O)N1CCCC(CCn2c(Sc3cc4c(cc3Br)OCO4)nc3c(N)ncnc32)C1` (stereo partly drawn) [Example 748, 9-(2-{1-[(2S)-2-Amino-4-methylpentanoyl]piperidin-3-yl}ethyl)-8-[(6-bromo-1,3-benzodioxol-5-yl)thio]-9H-purin-6-amine], the half-inhibitory concentration (IC50) stood at 210 nM.

As to `CN[C@@H](C)C(=O)N1CCC(CCn2c(Sc3cc4c(cc3Br)OCO4)nc3c(N)ncnc32)CC1` [Example 749, 8-[(6-Bromo-1,3-benzodioxol-5-yl)thio]-9-(2-{1-[(2S)-2-(methylamino)propanoyl]piperidin-4-yl}ethyl)-9H-purin-6-amine], the half-maximal inhibitory concentration (IC50) worked out at 330 nM.

Consider `CC(C)(N)C(=O)N1CCC(CCn2c(Sc3cc4c(cc3Br)OCO4)nc3c(N)ncnc32)CC1` [Example 750, 9-{2-[1-(2-Amino-2-methylpropanoyl)piperidin-4-yl]ethyl}-8-[(6-bromo-1,3-benzodioxol-5-yl)thio]-9H-purin-6-amine], for which the IC50 stood at 180 nM. Still for that read-out and setting: the value for `Nc1ncnc2c1nc(Sc1cc3c(cc1Br)OCO3)n2CCC1CCN(C(=O)C2(N)CC2)CC1` [Example 751, 9-(2-{1-[(1-Amino-cyclopropyl)carbonyl]piperidine-4-yl}ethyl)-8-[(6-bromo-1,3-benzodioxol-5-yl)thio]-9H-purin-6-amine] was 195 nM; that for `Nc1ncnc2c1nc(Sc1cc3c(cc1Br)OCO3)n2CCC1CCN(C(=O)[C@@H]2CCN2)CC1` [Example 752, 9-(2-{1-[(2S)-Azetidin-2-ylcarbonyl]piperidin-4-yl}ethyl)-8-[(6-bromo-1,3-benzo-dioxol-5-yl)thio]-9H-purin-6-amine] was 130 nM; that for `Nc1ncnc2c1nc(Sc1cc3c(cc1Br)OCO3)n2CCC1CCN(C(=O)[C@@H]2CCCN2)CC1` [Example 753, 8-[(6-Bromo-1,3-benzodioxol-5-yl)thio]-9-[2-(1-L-prolyl-piperidin-4-yl)ethyl]-9H-purin-6-amine] was 59 nM. Turning to `Nc1ncnc2c1nc(Sc1cc3c(cc1Br)OCO3)n2CCC1CCN(C(=O)[C@@H]2CCCCN2)CC1` [Example 754, 8-[(6-Bromo-1,3-benzodioxol-5-yl)thio]-9-(2-{1-[(2S)-piperidin-2-ylcarbonyl]piperidin-4-yl}ethyl)-9H-purin-6-amine], the concentration for half-maximal inhibition (IC50) was 50 nM. `C[C@@H](N)C(=O)N1CCC[C@@H](CCn2c(Sc3cc4c(cc3Br)OCO4)nc3c(N)ncnc32)C1` [Example 755, 9-(2-{(3S)-1-[(2R)-2-Aminopropanoyl]piperidin-3-yl}ethyl)-8-[(6-bromo-1,3-benzodioxol-5-yl)thio]-9H-purin-6-amine] came in with a 50% inhibitory concentration (IC50) of 140 nM.

The compound `C[C@H](O)C(=O)N1CCC(CCn2c(Sc3cc4c(cc3Br)OCO4)nc3c(N)ncnc32)CC1` [Example 757, (2S)-1-[4-(2-{6-amino-8-[(6-bromo-1,3-benzodioxol-5-yl)thio]-9H-purin-9-yl}ethyl)piperidin-1-yl]-1-oxopropan-2-ol] returned an IC50 of 205 nM.

With `Nc1ncnc2c1nc(Sc1cc3c(cc1Br)OCO3)n2CCC1CCN(C(=O)CO)CC1` [Example 760, 2-[4-(2-{6-Amino-8-[(6-bromo-1,3-benzodioxol-5-yl)thio]-9H-purin-9-yl}ethyl)piperidin-1-yl]-2-oxoethanol], the half-maximal inhibitory concentration (IC50) worked out at 325 nM. As for `C[C@H](O)C(=O)N1CCC(CCn2c(Sc3ccc4c(c3)CCO4)nc3c(N)ncnc32)CC1` [Example 768, (2S)-1-(4-{2-[6-Amino-8-(2,3-dihydro-1-benzofuran-5-ylthio)-9H-purin-9-yl]ethyl}piperidin-1-yl)-1-oxopropan-2-ol], the IC50 was more than 5000 nM. With `Nc1ncnc2c1nc(Sc1cc3c(cc1Br)OCO3)n2CCC1CCN(C(=O)[C@@H](O)CO)CC1` [Example 771, (2S)-3-[4-(2-{6-amino-8-[(6-bromo-1,3-benzodioxol-5-yl)thio]-9H-purin-9-yl}ethyl)piperidin-1-yl]-3-oxopropane-1,2-diol], the IC50 turned out to be 120 nM. Regarding `C[C@H](NC(=O)OC(C)(C)C)C(=O)N1CCC(CCn2c(Br)nc3c(N)ncnc32)CC1` [Example 772, tert-Butyl ((1S)-2-{4-[2-(6-amino-8-bromo-9H-purin-9-yl)ethyl]piperidin-1-yl}-1-methyl-2-oxoethyl)carbamate], the IC50 is more than 5000 nM. In the case of `C[C@H](NC(=O)OC(C)(C)C)C(=O)N1CCC(CCn2c(Sc3nc4cccc(Cl)c4s3)nc3c(N)ncnc32)CC1` [Example 773, tert-Butyl {(1S)-2-[4-(2-{6-amino-8-[(7-chloro-1,3-benzothiazol-2-yl)thio]-9H-purin-9-yl}ethyl)piperidin-1-yl]-1-methyl-2-oxoethyl}carbamate], the IC50 is 390 nM. As for `C[C@H](N)C(=O)N1CCC(CCn2c(Sc3nc4cccc(Cl)c4s3)nc3c(N)ncnc32)CC1` [Example 774, 9-(2-{1-[(2S)-2-Aminopropanoyl]piperidin-4-yl}ethyl)-8-[(7-chloro-1,3-benzothiazol-2-yl)thio]-9H-purin-6-amine], the IC50 is 200 nM.

`C[C@H](O)C(=O)N1CCC(CCn2c(Sc3nc4cccc(Cl)c4s3)nc3c(N)ncnc32)CC1` [Example 775, (2S)-1-[4-(2-{6-Amino-8-[(7-chloro-1,3-benzothiazol-2-yl)thio]-9H-purin-9-yl}ethyl)piperidin-1-yl]-1-oxopropan-2-ol] had an IC50 of 1800 nM. As for `CC(=O)N1CCC[C@H]1C(=O)N1CCC(CCn2c(Sc3cc4c(cc3Br)OCO4)nc3c(N)ncnc32)CC1` [Example 776, 9-{2-[1-(1-Acetyl-L-prolyl)piperidin-4-yl]ethyl}-8-[(6-bromo-1,3-benzodioxol-5-yl)thio]-9H-purin-6-amine], the half-maximal inhibitory concentration (IC50) was found to be 310 nM. In turn, `C[C@H](NC(=O)OC(C)(C)C)C(=O)N1CCCC(Cn2c(Sc3cc4c(cc3Br)OCO4)nc3c(N)ncnc32)C1` (stereo partly drawn) [Example 778, tert-Butyl {(1S)-2-[3-({6-amino-8-[(6-bromo-1,3-benzodioxol-5-yl)thio]-9H-purin-9-yl}methyl)piperidin-1-yl]-1-methyl-2-oxoethyl}carbamate] had an IC50 of 2000 nM.
